In ChEMBL document CHEMBL1201862, “PubChem BioAssay data set” (2004):
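1) Cells in 96-well plates. 2) Compound, 48 h, 5 concentrations. 3) Linear interpolation between surrounding doses. 4) Unreached endpoint = highest concentration. GI50 is the concentration that inhibits growth by half.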 The source made the active and inactive calls. Cut-off read from the data, not from the text of the source: active = GI50 up to about 1.1 µM and inactive = higher. Square brackets hold non-standard residues; d marks the D form. Peptide text beside a SMILES is read from it. * marks the point of attachment. ξ: configuration not given here. NMeN = CN[C@@H](CC(N)=O)C(=O)O; NMeV = CN[C@H](C(=O)O)C(C)C; ξNMeV = CNC(C(=O)O)C(C)C; Boc = CC(C)(C)OC(=O)*; ξNMeA = CNC(C)C(=O)O

What was measured:
Assay in all cases: NCI-60 cell line screen, 48 h
RPMI-8226 = tested on: RPMI-8226
HCC 2998 = tested on: HCC 2998
COLO 205 = tested on: COLO 205
SNB-19 = tested on: SNB-19
M14 = tested on: M14
SK-OV-3 = tested on: SK-OV-3
ACHN = tested on: ACHN
UO-31 = tested on: UO-31
A498 = tested on: A498
DMS-273 = tested on: DMS-273
PC-3 = tested on: PC-3
HOP-92 = tested on: HOP-92
MDA-MB-231 = tested on: MDA-MB-231
HOP-62 = tested on: HOP-62
MDA-MB-435 = tested on: MDA-MB-435
DU-145 = tested on: DU-145
NCI-H522 = tested on: NCI-H522
KM12 = tested on: KM12
NCI-H23 = tested on: NCI-H23
U-251 = tested on: U-251

Measured: GI50

COC(=O)C(C)N(C)C(=O)[C@H](CC(N)=O)N(C)C(=O)[C@@H]1CCCN1C(=O)[C@H](C(C)C)N(C)C(=O)C(C(C)C)N(C)C(=O)[C@@H](NC(=O)OC(C)(C)C)C(C)C (stereo not given in full) (Boc-V[ξNMeV][NMeV]P[NMeN][ξNMeA]-OMe)
inactive: RPMI-8226 > 50 µM | HCC 2998 > 50 µM | COLO 205 > 50 µM | SNB-19 > 50 µM | M14 > 50 µM | SK-OV-3 > 50 µM | ACHN > 50 µM | UO-31 24.7 µM | A498 > 50 µM | DMS-273 42.1 µM | PC-3 11.4 µM | HOP-92 > 50 µM | MDA-MB-231 > 50 µM | HOP-62 > 50 µM | MDA-MB-435 > 50 µM | DU-145 > 50 µM | NCI-H522 > 50 µM | KM12 > 100 µM | NCI-H23 > 50 µM | U-251 > 50 µM
